Data taken from ChEMBL document CHEMBL3112406, “Virtual screening and biochemical evaluation to identify new inhibitors of mammalian target of rapamycin (mTOR)” (Bioorg Med Chem Lett, 2014).

Biological target: Serine/threonine-protein kinase mTOR (Homo sapiens, UniProt P42345)
Assay: Inhibition of mTOR (unknown origin) by KINOMEscan assay

For `c1ccc(-c2c(-c3ccccc3)n(Cc3ccco3)c3ncnc(NCCCn4ccnc4)c23)cc1`, the IC50 was 54.1 µM.
